In brackets after ≈: the same amount, converted by molar mass.
Columns and labels:
[1] = system: human T-lymphocyte (CEM) cells; assay: Cytostatic activity, CEM cell proliferation; assay type: cell-based; details: mean ± SD of three experiments; highest concentration tested 250 µM; 3 days; read-out: Toxicity (IC50) CEM
Protocol: (§1) Murine leukemia (L1210), human T-lymphocyte (CEM) and the human cervix carcinoma (HeLa) cell line were suspended at 300,000–500,000 cells/mL of culture medium, and 100 μL of a cell suspension was added to 100 μL of an appropriate dilution of the test compounds in wells of 96-well microtiter plates. After incubation at 37°C for 2 (L1210), 3 (CEM), or 4 (HeLa) days, the cell number was determined using a Coulter counter. The IC50 was defined per cell type as the compound concentration required to inhibit cell proliferation by 50% compared to the negative control ([Glowacka et al., 2017]).

MRSA KS89 = assay: MIC, broth microdilution, MRSA KS89; assay type: cell-based, Staphylococcus aureus; details: for MIC-fold improvement vs. vancomycin: MRSA KS8, ratio of MIC of vancomycin and MIC of analogue; for MIC: Staphylococcus aureus MRSA KS8, read-out: MIC
Protocol: (§2) The minimum inhibitory concentration (MIC) was determined using the broth microdilution method according to the antimicrobial susceptibility testing standards of the clinical and laboratory standards institute ([Clinical and Laboratory Standards Institute [CLSI], 2012]). Ultrapure water and non-inoculated broth were used as controls. In one case, a final concentration of 10 μM vancomycin was included with the vancomycin analog or control antibiotic.

MRSA KS6 = assay: MIC, broth microdilution, MRSA KS6; assay type: cell-based, Staphylococcus aureus; details: for MIC-fold improvement vs. vancomycin: MRSA KS6, ratio of MIC of vancomycin and MIC of analogue; for MIC: Staphylococcus aureus MRSA KS6, read-out: MIC
Protocol: as §2

E. faecalis VRE 6 = assay: MIC, broth microdilution, vancomycin-resistant E. faecalis VRE 6 (VanA); assay type: cell-based, Enterococcus faecalis; details: for MIC: Enterococcus faecalis VRE 6 (vancomycin-resistant), read-out: MIC; for MIC-fold improvement vs. vancomycin: VRE 6, ratio of MIC of vancomycin and MIC of analogue
Protocol: as §2

E. faecalis VSE 1 = assay: MIC, broth microdilution, vancomycin-sensitive E. faecalis (VSE 1); assay type: cell-based, Enterococcus faecalis; details: for MIC: Enterococcus faecalis VSE 1 (vancomycin-sensitive), read-out: MIC; for MIC-fold improvement vs. vancomycin: VSE 1, ratio of MIC of vancomycin and MIC of analogue
Protocol: as §2

S. aureus VISA/HIP5827 = assay: MIC, broth microdilution, vancomycin-intermediate S. aureus VISA HIP5827; assay type: cell-based, Staphylococcus aureus; details: for MIC: Staphylococcus aureus VISA/HIP5827, read-out: MIC; for MIC-fold improvement vs. vancomycin: VISA/HIP5827, ratio of MIC of vancomycin and MIC of analogue
Protocol: as §2

[2] = system: L1210, CEM and HeLa cell lines; assay: Cytostatic activity, average or summary over L1210, CEM and HeLa; assay type: cell-based; details: average of L1210, CEM and HeLa; read-out: Toxicity (IC50) Average
Protocol: as §1

[3] = system: S. aureus VSSA (ATCC 6538); assay: MIC, broth microdilution, vancomycin-sensitive S. aureus (VSSA/MSSA, ATCC 6538); assay type: cell-based, Staphylococcus aureus; details: for MIC: Staphylococcus aureus VSSA, read-out: MIC; for MIC-fold improvement vs. vancomycin: VSSA, ratio of MIC of vancomycin and MIC of analogue
Protocol: as §2

E. faecalis VRE 29 = assay: MIC, broth microdilution, vancomycin-resistant E. faecalis VRE 29 (VanA); assay type: cell-based, Enterococcus faecalis; details: for MIC: Enterococcus faecalis VRE 29 (vancomycin-resistant), read-out: MIC; for MIC-fold improvement vs. vancomycin: VRE 29, ratio of MIC of vancomycin and MIC of analogue
Protocol: as §2

MRSA KS2 = assay: MIC, broth microdilution, MRSA KS2; assay type: cell-based, Staphylococcus aureus; details: for MIC-fold improvement vs. vancomycin: MRSA KS2, ratio of MIC of vancomycin and MIC of analogue; for MIC: Staphylococcus aureus MRSA KS2, read-out: MIC
Protocol: as §2

MRSA KS1 = assay: MIC, broth microdilution, MRSA KS1; assay type: cell-based, Staphylococcus aureus; details: for MIC-fold improvement vs. vancomycin: MRSA KS1, ratio of MIC of vancomycin and MIC of analogue; for MIC: Staphylococcus aureus MRSA KS1, read-out: MIC
Protocol: as §2

E. faecalis VRE 37 = assay: MIC, broth microdilution, vancomycin-resistant E. faecalis VRE 37 (VanA); assay type: cell-based, Enterococcus faecalis; details: for MIC: Enterococcus faecalis VRE 37 (vancomycin-resistant), read-out: MIC
Protocol: as §2

E. faecalis VRE 53 = assay: MIC, broth microdilution, vancomycin-resistant E. faecalis VRE 53 (VanA); assay type: cell-based, Enterococcus faecalis; details: for MIC: Enterococcus faecalis VRE 53 (vancomycin-resistant), read-out: MIC; for MIC-fold improvement vs. vancomycin: VRE 53, ratio of MIC of vancomycin and MIC of analogue
Protocol: as §2

[4] = system: human cervix carcinoma (HeLa) cells; assay: Cytostatic activity, HeLa cell proliferation; assay type: cell-based; details: mean ± SD of three experiments; highest concentration tested 250 µM; 4 days; read-out: Toxicity (IC50) HeLa
Protocol: as §1

S. aureus VRSA = assay: MIC, broth microdilution, vancomycin-resistant S. aureus (VRSA); assay type: cell-based, Staphylococcus aureus; details: for MIC: Staphylococcus aureus VRSA, read-out: MIC; for MIC-fold improvement vs. vancomycin: VRSA, ratio of MIC of vancomycin and MIC of analogue
Protocol: as §2

[5] = system: Murine leukemia (L1210) cells; assay: Cytostatic activity, L1210 cell proliferation; assay type: cell-based; details: mean ± SD of three experiments; highest concentration tested 250 µM; 2 days; read-out: Toxicity (IC50) L1210
Protocol: as §1

Compound	IC50 [1] [µM]	MIC-fold improvement vs. vancomycin (MRSA KS89)	MIC (MRSA KS89) [µM]	MIC-fold improvement vs. vancomycin (MRSA KS6)	MIC (MRSA KS6) [µM]	MIC (E. faecalis VRE 6) [µM]	MIC-fold improvement vs. vancomycin (E. faecalis VRE 6)	MIC (E. faecalis VSE 1) [µM]	MIC-fold improvement vs. vancomycin (E. faecalis VSE 1)	MIC (S. aureus VISA/HIP5827) [µM]	MIC-fold improvement vs. vancomycin (S. aureus VISA/HIP5827)	IC50 [2] [µM]	MIC [3] [µM]	MIC-fold improvement vs. vancomycin [3]	MIC (E. faecalis VRE 29) [µM]	MIC-fold improvement vs. vancomycin (E. faecalis VRE 29)	MIC-fold improvement vs. vancomycin (MRSA KS2)	MIC (MRSA KS2) [µM]	MIC-fold improvement vs. vancomycin (MRSA KS1)	MIC (MRSA KS1) [µM]	other results
CNC(CC(C)C)C(=O)NC1C(=O)NC(CC(N)=O)C(=O)NC2C(=O)NC3C(=O)NC(C(=O)NC(C(=O)NCC(=O)Nc4ccc(O)cc4)c4cc(O)cc(O)c4-c4cc3ccc4O)C(O)c3ccc(c(Cl)c3)Oc3cc2cc(c3OC2OC(CO)C(O)C(O)C2OC2CC(C)(N)C(O)C(C)O2)Oc2ccc(cc2Cl)C1O (stereo not shown) [Vanc-1]	> 250	1	0.78 (≈ 1.25 µg/mL)	1	0.78 (≈ 1.25 µg/mL)	25 (≈ 39.9 µg/mL)	8	0.78 (≈ 1.25 µg/mL)	2	0.78 (≈ 1.25 µg/mL)	8	191	0.78 (≈ 1.25 µg/mL)	1	>50	<8	1	0.78 (≈ 1.25 µg/mL)	1	0.78 (≈ 1.25 µg/mL)	MIC (E. faecalis VRE 37): 50 µM (≈ 79.9 µg/mL); MIC-fold improvement vs. vancomycin (E. faecalis VRE 37; VRE 37, ratio of MIC of vancomycin and MIC of analogue): 16; MIC (E. faecalis VRE 53): 25 µM (≈ 39.9 µg/mL); MIC-fold improvement vs. vancomycin (E. faecalis VRE 53): 16; IC50 [4]: 72 ± 10 µM; MIC (S. aureus VRSA): 25 µM (≈ 39.9 µg/mL); MIC-fold improvement vs. vancomycin (S. aureus VRSA): 4; IC50 [5]: > 250 µM
CN[C@H](CC(C)C)C(=O)N[C@H]1C(=O)N[C@@H](CC(N)=O)C(=O)N[C@H]2C(=O)N[C@H]3C(=O)N[C@H](C(=O)N[C@H](C(=O)NCC(=O)Nc4ccc(C)cc4Cl)c4cc(O)cc(O)c4-c4cc3ccc4O)[C@H](O)c3ccc(c(Cl)c3)Oc3cc2cc(c3O[C@@H]2O[C@H](CO)[C@@H](O)[C@H](O)[C@H]2O[C@H]2C[C@](C)(N)[C@H](O)[C@H](C)O2)Oc2ccc(cc2Cl)[C@H]1O [Vanc-2]	> 250	2	0.39 (≈ 0.636 µg/mL)	2	0.39 (≈ 0.636 µg/mL)	12.5 (≈ 20.4 µg/mL)	16	0.39 (≈ 0.636 µg/mL)	4	0.78 (≈ 1.27 µg/mL)	8	219	0.78 (≈ 1.27 µg/mL)	1	12.5 (≈ 20.4 µg/mL)	32	2	0.39 (≈ 0.636 µg/mL)	2	0.39 (≈ 0.636 µg/mL)	MIC (E. faecalis VRE 37): 25 µM (≈ 40.7 µg/mL); MIC (E. faecalis VRE 53): 25 µM (≈ 40.7 µg/mL); MIC-fold improvement vs. vancomycin (E. faecalis VRE 53): 16; IC50 [4]: 158 ± 84 µM; MIC (S. aureus VRSA): 12.5 µM (≈ 20.4 µg/mL); MIC-fold improvement vs. vancomycin (S. aureus VRSA): 8; IC50 [5]: > 250 µM
